In brackets after ≈: the same amount, converted by molar mass. Activity calls are given as the source filed them. The rule behind the calls is not given here.
Assays:
[1] = test system: Hoylesella oralis; assay: Minimum inhibitory concentration against Bacteroides oralis (ATCC 72708) using agar method; format: functional
[2] = test system: Pasteurella sp.; assay: Minimum inhibitory concentration against Pasteurella sp.(ATCC 71886) using agar method; format: functional
[3] = test system: Bacteroides uniformis; assay: Minimum inhibitory concentration against Bacteroides uniformis (ATCC 62723) using agar method; format: functional
[4] = test system: Schaalia meyeri; assay: Minimum inhibitory concentration against Actinomyces meyeri (ATCC 61789) using agar method; format: functional
[5] = test system: Escherichia coli; assay: Minimum inhibitory concentration against Escherichia coli (ATCC NCTC 6571) using agar method; format: functional
[6] = test system: Pasteurella multocida; assay: Minimum inhibitory concentration against Pasteurella multocida (ATCC 63560) using agar method; format: functional
[7] = test system: Prevotella bivia; assay: Minimum inhibitory concentration against Bacteroides bivus (ATCC 64362) using agar method; format: functional
[8] = test system: Pasteurella sp.; assay: Minimum inhibitory concentration against Pasteurella sp.(ATCC 67535) using agar method; format: functional
[9] = test system: Prevotella buccae; assay: Minimum inhibitory concentration against Bacteroides buccae (ATCC 67792) using agar method; format: functional; conditions: Segatella buccae
[10] = test system: Staphylococcus aureus; assay: Minimum inhibitory concentration against Staphylococcus aureus (ATCC NCTC 6571) using agar method; format: functional
[11] = test system: Fusobacterium sp.; assay: Minimum inhibitory concentration against Fusobacterium sp.(ATCC 74714) using agar method; format: functional, fusobacterium species
[12] = test system: Pasteurella multocida; assay: Minimum inhibitory concentration against Pasteurella multocida (ATCC 61096) using agar method; format: functional
[13] = test system: Porphyromonas canoris; assay: Minimum inhibitory concentration against Porphyromonas canoris (ATCC NCTC 12835) using agar method; format: functional
[14] = test system: Corynebacterium sp.; assay: Minimum inhibitory concentration against Corynebacterium sp. (ATCC 68984) using agar method; format: functional
[15] = test system: Actinomyces sp.; assay: Minimum inhibitory concentration against Actinomyces sp.(ATCC 70710) using agar method; format: functional
[16] = test system: Pseudoflavonifractor capillosus; assay: Minimum inhibitory concentration against Bacteroides capillosus (ATCC 60802) using agar method; format: functional
[17] = test system: Porphyromonas gingivalis; assay: Minimum inhibitory concentration against Porphyromonas gingivalis sp.(ATCC D23C) using agar method; format: functional
[18] = test system: Pasteurella sp.; assay: Minimum inhibitory concentration against Pasteurella sp.(ATCC 69527) using agar method; format: functional
[19] = test system: Porphyromonas canoris; assay: Minimum inhibitory concentration against Porphyromonas canoris (ATCC NCTC 12836) using agar method; format: functional
[20] = test system: Fusobacterium mortiferum; assay: Minimum inhibitory concentration against Fusobacterium mortiferum (ATCC 63425) using agar method; format: functional
[21] = test system: Pasteurella sp.; assay: Minimum inhibitory concentration against Pasteurella sp.(ATCC 67777) using agar method; format: functional
[22] = test system: Bacteroides ovatus; assay: Minimum inhibitory concentration against Bacteroides ovatus (ATCC 66640) using agar method; format: functional
[23] = test system: Propionibacterium; assay: Minimum inhibitory concentration against Propionibacterium sp.(ATCC 72661) using agar method; format: functional
[24] = test system: Propionibacterium; assay: Antibacterial activity against Propionibacterium sp.(ATCC 72661) at a concentration of 200 ug/mL; Active; format: functional, organism-based
[25] = test system: Pasteurella sp.; assay: Antibacterial activity against Pasteurella sp.(ATCC 67535) at a concentration of 200 ug/mL; Active; format: functional, organism-based
[26] = test system: Pasteurella multocida; assay: Antibacterial activity against Pasteurella multocida (ATCC 61096) at a concentration of 200 ug/mL; not active; format: functional, organism-based
[27] = test system: Porphyromonas gingivalis; assay: Antibacterial activity against Porphyromonas gingivalis sp.(ATCC D23C) at a concentration of 200 ug/mL; format: functional, organism-based
[28] = test system: Fusobacterium sp.; assay: Antibacterial activity against Fusobacterium sp.(ATCC 74714) at a concentration of 200 ug/mL; not active; format: functional, organism-based
[29] = test system: Bacteroides uniformis; assay: Antibacterial activity against Bacteroides uniformis (ATCC 62723) at a concentration of 200 ug/mL; not active; format: functional, organism-based
[30] = test system: Bacteroides ovatus; assay: Antibacterial activity against Bacteroides ovatus (ATCC 66640) at a concentration of 200 ug/mL; not active; format: functional, organism-based
[31] = test system: Schaalia meyeri; assay: Antibacterial activity against Actinomyces meyeri (ATCC 61789) at a concentration of 200 ug/mL; Active; format: functional, organism-based
[32] = test system: Staphylococcus aureus; assay: Antibacterial activity against Staphylococcus aureus (ATCC NCTC 6571) at a concentration of 200 ug/mL; not active; format: functional, organism-based
[33] = test system: Prevotella bivia; assay: Antibacterial activity against Bacteroides bivus (ATCC 64362) at a concentration of 200 ug/mL; not active; format: functional, organism-based
[34] = test system: Corynebacterium sp.; assay: Antibacterial activity against Corynebacterium sp. (ATCC 68984) at a concentration of 200 ug/mL; Active; format: functional, organism-based
[35] = test system: Pseudoflavonifractor capillosus; assay: Antibacterial activity against Bacteroides capillosus (ATCC 60802) at a concentration of 200 ug/mL; not active; format: functional, organism-based
[36] = test system: Pasteurella multocida; assay: Antibacterial activity against Pasteurella multocida (ATCC 63560) at a concentration of 200 ug/mL; not active; format: functional, organism-based
[37] = test system: Pasteurella sp.; assay: Antibacterial activity against Pasteurella sp.(ATCC 71886) at a concentration of 200 ug/mL; not active; format: functional, organism-based
[38] = test system: Pasteurella sp.; assay: Antibacterial activity against Pasteurella sp.(ATCC 69527) at a concentration of 200 ug/mL; not active; format: functional, organism-based
[39] = test system: Porphyromonas canoris; assay: Antibacterial activity against Porphyromonas canoris (ATCC NCTC 12835) at a concentration of 200 ug/mL; Active; format: functional, organism-based
[40] = test system: Escherichia coli; assay: Antibacterial activity against Escherichia coli (ATCC NCTC 6571) at a concentration of 200 ug/mL; not active; format: functional, organism-based
[41] = test system: Porphyromonas canoris; assay: Antibacterial activity against Porphyromonas canoris (ATCC NCTC 12836) at a concentration of 200 ug/mL; Active; format: functional, organism-based
[42] = test system: Pasteurella sp.; assay: Antibacterial activity against Pasteurella sp.(ATCC 67777) at a concentration of 200 ug/mL; not active; format: functional, organism-based
[43] = test system: Prevotella buccae; assay: Antibacterial activity against Bacteroides buccae (ATCC 67792) at a concentration of 200 ug/mL; not active; format: functional, organism-based; conditions: Segatella buccae
[44] = test system: Actinomyces sp.; assay: Antibacterial activity against Actinomyces sp.(ATCC 70710) at a concentration of 200 ug/mL; Active; format: functional, organism-based
[45] = test system: Hoylesella oralis; assay: Antibacterial activity against Bacteroides oralis (ATCC 72708) at a concentration of 200 ug/mL; not active; format: functional, organism-based
[46] = test system: Fusobacterium mortiferum; assay: Antibacterial activity against Fusobacterium mortiferum (ATCC 63425) at a concentration of 200 ug/mL; not active; format: functional, organism-based
[47] = test system: Actinomyces sp.; assay: Antibacterial activity against Actinomyces sp.(ATCC 70710) at a concentration of 200 ug/mL; not active; format: functional, organism-based
[48] = test system: Pasteurella sp.; assay: Antibacterial activity against Pasteurella sp.(ATCC 67535) at a concentration of 200 ug/mL; not active; format: functional, organism-based
[49] = test system: Propionibacterium; assay: Antibacterial activity against Propionibacterium sp.(ATCC 72661) at a concentration of 200 ug/mL; not active; format: functional, organism-based
[50] = test system: Corynebacterium sp.; assay: Antibacterial activity against Corynebacterium sp. (ATCC 68984) at a concentration of 200 ug/mL; not active; format: functional, organism-based
[51] = test system: Staphylococcus aureus; assay: Antibacterial activity against Staphylococcus aureus (ATCC NCTC 6571) at a concentration of 200 ug/mL; Active; format: functional, organism-based
[52] = test system: Bacteroides ovatus; assay: Antibacterial activity against Bacteroides ovatus (ATCC 66640) at a concentration of 200 ug/mL; Active; format: functional, organism-based
[53] = test system: Porphyromonas gingivalis; assay: Antibacterial activity against Porphyromonas gingivalis sp.(ATCC D23C) at a concentration of 200 ug/mL; Active; format: functional, organism-based
[54] = test system: Hoylesella oralis; assay: Antibacterial activity against Bacteroides oralis (ATCC 72708) at a concentration of 200 ug/mL; Active; format: functional, organism-based

MIC [1] [µg/mL] | MIC [2] [µg/mL] | MIC [3] [µg/mL] | MIC [4] [µg/mL] | MIC [5] [µg/mL] | SMILES | Activity [26] | Activity [28] | Activity [29] | Activity [31] | Activity [33] | Activity [35] | Activity [36] | Activity [37] | Activity [38] | Activity [39] | Activity [40] | Activity [41] | Activity [42] | Activity [43] | Activity [46] | also measured
> 50 | 12.5 (≈ 20 µM) | > 50 | > 50 | 6.25 (≈ 10 µM) | CCC[C@@H]1OC(=O)[C@@H](C)C[C@H](C)CCCCC(=O)CCC[C@@H](CC)/C=C/C=C(\COC)CC[C@@H](O)[C@@H](O)C[C@H](O)CNC1=O |  |  |  |  |  |  |  |  |  |  |  |  |  |  |  | MIC [6]: > 50 µg/mL; MIC [7]: > 50 µg/mL; MIC [8]: 12.5 µg/mL (≈ 20 µM); MIC [9]: 12.5 µg/mL (≈ 20 µM); MIC [10]: > 50 µg/mL; MIC [11]: > 50 µg/mL; MIC [12]: > 50 µg/mL; MIC [13]: 25 µg/mL (≈ 40.1 µM); MIC [14]: > 50 µg/mL; MIC [15]: > 50 µg/mL; MIC [16]: 25 µg/mL (≈ 40.1 µM); MIC [17]: 25 µg/mL (≈ 40.1 µM); MIC [18]: 25 µg/mL (≈ 40.1 µM); MIC [19]: 25 µg/mL (≈ 40.1 µM); MIC [20]: 12.5 µg/mL (≈ 20 µM); MIC [21]: 12.5 µg/mL (≈ 20 µM); MIC [22]: > 50 µg/mL; MIC [23]: > 50 µg/mL
 |  |  |  |  | CCC[C@@H]1OC(=O)CCCCCCCCCCCCCC/C=C(\C)CC[C@@H](O)[C@@H](O)C[C@H](O)CNC1=O | inactive | inactive | inactive | Active | inactive | inactive | inactive | inactive | inactive | Active | inactive | Active | inactive | inactive | inactive | Activity [24]: Active; Activity [25]: Active; Activity [27]: inactive; Activity [30]: inactive; Activity [32]: inactive; Activity [34]: Active; Activity [44]: Active; Activity [45]: inactive
 |  |  |  |  | CCC[C@@H]1OC(=O)CCCCCCCCCCCCCC/C=C/C[C@H](O)[C@H](O)[C@@H](O)[C@H](O)[C@H](O)CNC1=O | inactive | inactive | inactive | Active | inactive | inactive | inactive | inactive | inactive | Active | inactive | Active | inactive | inactive | inactive | Activity [27]: inactive; Activity [47]: inactive; Activity [30]: inactive; Activity [32]: inactive; Activity [48]: inactive; Activity [49]: inactive; Activity [50]: inactive; Activity [45]: inactive
 |  |  |  |  | CCC[C@H]1OC(=O)CCCCCCCCCCCCCC/C=C/C[C@H](O)[C@H](O)[C@@H](O)[C@H](O)[C@H](O)CNC1=O | inactive | inactive | inactive | Active | inactive | inactive | inactive | inactive | inactive | Active | inactive | Active | inactive | inactive | inactive | Activity [24]: Active; Activity [25]: Active; Activity [51]: Active; Activity [52]: Active; Activity [34]: Active; Activity [53]: Active; Activity [54]: Active; Activity [44]: Active
6.25 (≈ 9.99 µM) | 0.78 (≈ 1.25 µM) | 12.5 (≈ 20 µM) | 12.5 (≈ 20 µM) | 3.12 (≈ 4.98 µM) | CCC[C@@H]1OC(=O)[C@@H](C)C[C@H](C)CCCCC(=O)CCC[C@@H](CC)CC/C=C(\COC)CC[C@@H](O)[C@@H](O)C[C@H](O)CNC1=O |  |  |  |  |  |  |  |  |  |  |  |  |  |  |  | MIC [6]: 0.78 µg/mL (≈ 1.25 µM); MIC [7]: 6.25 µg/mL (≈ 9.99 µM); MIC [8]: 0.78 µg/mL (≈ 1.25 µM); MIC [9]: > 50 µg/mL; MIC [10]: > 50 µg/mL; MIC [12]: 1.56 µg/mL (≈ 2.49 µM); MIC [14]: 12.5 µg/mL (≈ 20 µM); MIC [16]: 12.5 µg/mL (≈ 20 µM); MIC [17]: 1.56 µg/mL (≈ 2.49 µM); MIC [18]: 3.12 µg/mL (≈ 4.98 µM); MIC [20]: > 50 µg/mL; MIC [21]: 1.56 µg/mL (≈ 2.49 µM); MIC [22]: 12.5 µg/mL (≈ 20 µM)

— ChEMBL document CHEMBL1136505, “Myxovirescin analogues via macrocyclic ring-closing metathesis” (2003)
